Results from patent publication US7119073B2, “Peptides and their use as inhibitors of hepatitis C virus ns3 protease” (Istituto Di Ricerche Di Biologia Molecolare P. Angeletti SpA, priority 2001, dated 2006).
Where two headings read alike, the source gives them in different places. Where a SMILES comes first, the peptide text is derived from it. The star is where a group is joined. NHPhenethyl = c1ccc(CCN*)cc1; Cbz = O=C(OCc1ccccc1)*

Biological target: T1, NS3 protease domain complexed to a modified form of the NS4A peptide (Pep4AK) (Hepatitis C virus genotype 1b, UniProt P26663)
T1 construct: NS3 protease domain (residues 1027–1206 of the HCV polyprotein)
Assay: HCV NS3 protease domain/NS4A cofactor peptide assay (Assay B)
Type: biochemical

[1] = NS3 protease domain/NS4A cofactor peptide assay, read-out: Assay B (IC50 class)
[2] = Table 2, NS3 protease domain/Pep4AK, read-out: Assay B
[3] = Table 1, NS3 protease domain/Pep4AK, 4AB peptide substrate, read-out: Assay B
[4] = Table 4, NS3 protease domain/Pep4AK, read-out: Assay B

T1 sequence (P26663 1027-1206, other chains not shown): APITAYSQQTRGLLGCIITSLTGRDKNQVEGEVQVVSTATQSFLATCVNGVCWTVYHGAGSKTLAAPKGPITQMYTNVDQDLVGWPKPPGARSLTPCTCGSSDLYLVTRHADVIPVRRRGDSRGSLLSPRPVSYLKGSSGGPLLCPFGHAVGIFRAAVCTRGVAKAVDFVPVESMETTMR

Structure (SMILES) | IC50 [2] | IC50 [3] | further results
CC(C)C[C@H](NC(=O)C1Cc2ccccc2N1)C(=O)N[C@@H](CC(F)F)C(=O)NCCc1c(F)cc(C(=O)O)cc1F (stereo partly drawn) [Compound 709] |  |  | IC50 [1]: < 100 µM
CC(C)C[C@H](NC(=O)[C@H](CCC(=O)O)NC(=O)C(=O)c1cccs1)C(=O)N[C@@H](CS)C(=O)NCCc1ccccc1Cl [Compound 224] | < 100 µM |  | 
CC(C)C[C@H](NC(=O)[C@H](CCC(=O)O)NC(=O)OCc1ccccc1)C(=O)N[C@@H](CS)C(=O)NCCc1ccccc1 [Compound 101] (Cbz-Glu-Leu-Cys-NHPhenethyl) |  | < 100 µM | 
Cc1cccc(CCNC(=O)C(CS)NC(=O)C(CC(C)C)NC(=O)C(CCC(=O)O)NC(=O)OCC(C)C)c1 (stereo not drawn) [Compound 130] |  | < 100 µM | 
CC(C)C[C@H](NC(=O)[C@H](CCC(=O)O)NC(=O)N1CCOCC1)C(=O)N[C@@H](CS)C(=O)NCCc1ccccc1Cl [Compound 237] | < 100 µM |  | 
CC(C)COC(=O)N[C@@H](CCC(=O)O)C(=O)N[C@@H](CC(C)C)C(=O)N[C@@H](CS)C(=O)NCCc1ccc(Cl)cc1Cl [Compound 165] |  | < 10 µM | 
CC(C)COC(=O)NC(C(=O)NC(CC(C)C)C(=O)NC(CC(F)F)C(=O)NCCc1ccc(C(=O)O)cc1Cl)C(C)C (stereo not drawn) [Compound 179] |  | < 10 µM | 
Cc1nn(Cc2cccc(C(=O)N[C@@H](CCC(=O)O)C(=O)N[C@@H](CC(C)C)C(=O)N[C@@H](CS)C(=O)NCCc3ccccc3Cl)c2)c(C)c1Br [Compound 210] | < 100 µM |  | 
COc1ccc(CCNC(=O)[C@H](CS)NC(=O)[C@H](CC(C)C)NC(=O)[C@H](CCC(=O)O)NC(=O)C2CCCCCC2)cc1 [Compound 232] | < 100 µM |  | 
CC(C)COC(=O)N[C@@H](CCC(=O)O)C(=O)N[C@@H](CC(C)C)C(=O)N[C@@H](CS)C(=O)NC[C@H](C)c1ccccc1 [Compound 108] |  | < 100 µM | 
CC(C)COC(=O)NC(CCC(=O)O)C(=O)N1C(C(=O)NC(CS)C(=O)NCCc2ccccc2Cl)CCC1c1ccccc1 (stereo not drawn) [Compound 422] |  |  | IC50 [4]: < 100 µM
COc1ccc(CCNC(=O)[C@H](CS)NC(=O)[C@H](CC(C)C)NC(=O)[C@H](CCC(=O)O)NC(=O)Cc2ccccc2)cc1 [Compound 216] | < 100 µM |  | 
COc1ccc(CCNC(=O)C(CS)NC(=O)C(CC(C)C)NC(=O)C(CCC(=O)O)NC(=O)OCC(C)C)cc1 (stereo not drawn) [Compound 141] |  | < 100 µM | 
CC(C)COC(=O)N[C@@H](CCC(=O)O)C(=O)N[C@@H](CCC(=O)O)C(=O)N[C@@H](CS)C(=O)NCCc1ccccc1Cl [Compound 412] |  |  | IC50 [4]: < 100 µM
Cc1ccc(S(=O)(=O)N[C@@H](CCC(=O)O)C(=O)N[C@@H](CC(C)C)C(=O)N[C@@H](CS)C(=O)NCCc2ccccc2Cl)cc1 [Compound 251] | < 100 µM |  | 
CC(C)CC(NC(=O)c1ccccc1-c1ccccc1C(=O)O)C(=O)NC(CC(F)F)C(=O)NCCc1cccc(NCC(=O)O)c1 (stereo not drawn) [Compound 720] |  |  | IC50 [1]: < 100 µM
CC(C)COC(=O)NC(CCC(=O)O)C(=O)NC(CC(C)C)C(=O)NC(CS)C(=O)NCCc1ccc(Br)cc1 (stereo not drawn) [Compound 139] |  | < 100 µM | 
CC(C)C[C@H](NC(=O)[C@H](CCC(=O)O)NC(=O)CCC(=O)O)C(=O)N[C@@H](CS)C(=O)NCCc1ccccc1Cl [Compound 239] | < 100 µM |  | 
CC(C)CC(NC(=O)C(NC(=O)OC1CCS(=O)(=O)CC1)C(C)C)C(=O)NC(CS)C(=O)NCCc1ccc(C(=O)O)cc1Cl (stereo not drawn) [Compound 182] |  | < 100 µM | 

Structure (SMILES) | IC50 [2] | IC50 [3] | further results
CCOc1ccccc1CCNC(=O)C(CS)NC(=O)C(CC(C)C)NC(=O)C(CCC(=O)O)NC(=O)OCC(C)C (stereo not drawn) [Compound 120] |  | < 100 µM | 
CC(C)C[C@H](NC(=O)[C@H](CCC(=O)O)NC(=O)NCc1ccccc1)C(=O)N[C@@H](CS)C(=O)NCCc1ccc(Cl)cc1Cl [Compound 248] | < 100 µM |  | 
CC(C)COC(=O)N[C@@H](CCC(=O)O)C(=O)N[C@@H](CCc1ccccc1)C(=O)N[C@@H](CS)C(=O)NCCc1ccccc1Cl [Compound 414] |  |  | IC50 [4]: < 100 µM
CC(C)C[C@H](NC(=O)[C@H](CCC(=O)O)NC(=O)CCc1ccccc1)C(=O)N[C@@H](CS)C(=O)NCCc1ccc(Cl)cc1Cl [Compound 217] | < 100 µM |  | 
CC(C)COC(=O)NC(CCC(=O)O)C(=O)NC(CC(C)C)C(=O)NC(CS)C(=O)NCCc1ccc(Cl)cc1 (stereo not drawn) [Compound 138] |  | < 100 µM | 
CC(C)COC(=O)NC(CCC(=O)O)C(=O)NC(CC(C)C)C(=O)NC(CS)C(=O)NCCc1ccc(S(N)(=O)=O)cc1 (stereo not drawn) [Compound 159] |  | < 10 µM | 
CC(C)COC(=O)N[C@@H](CCC(=O)O)C(=O)NC1(C(=O)N[C@@H](CS)C(=O)NCCc2ccccc2Cl)Cc2ccccc2C1 [Compound 415] |  |  | IC50 [4]: < 100 µM
CC(C)C[C@H](NC(=O)[C@H](CCC(=O)O)NC(=O)c1ccc2c(c1)OCO2)C(=O)N[C@@H](CS)C(=O)NCCc1ccccc1Cl [Compound 203] | < 100 µM |  | 
CC(C)C[C@H](NC(=O)C1(Cc2ccsc2C(=O)O)CCc2ccccc2N1)C(=O)N[C@@H](CC(F)F)C(=O)NCCc1c(F)cc(C(=O)O)cc1F (single isomer, unassigned) [Compound 713] |  |  | IC50 [1]: < 100 µM
CC(C)C[C@H](NC(=O)[C@H](CCC(=O)O)NC(=O)c1ccccc1-c1ccccc1C(=O)O)C(=O)N[C@@H](CS)C(=O)NCCc1ccccc1Cl [Compound 211] | < 100 µM |  | 
CC(C)C[C@H](NC(=O)C1(Cc2ccc(C(=O)O)s2)Cc2ccccc2N1)C(=O)N[C@@H](CS)C(=O)NCCc1ccc(C(=O)O)cc1 (mixture of isomers) [Compound 703] |  |  | IC50 [1]: < 100 µM
COc1ccc(CCNC(=O)[C@H](CS)NC(=O)[C@H](CC(C)C)NC(=O)[C@H](CCC(=O)O)NC(=O)CC(C)(C)CC(=O)O)cc1 [Compound 241] | < 100 µM |  | 
COc1ccc(CCNC(=O)[C@H](CS)NC(=O)[C@H](CC(C)C)NC(=O)[C@H](CCC(=O)O)NC(=O)c2ccco2)cc1 [Compound 214] | < 100 µM |  | 
CC(C)COC(=O)N[C@@H](CCC(=O)O)C(=O)N[C@@H](CC(C)C)C(=O)N[C@@H](CS)C(=O)NCC(CC(=O)O)c1ccc(Cl)cc1 (stereo partly drawn) [Compound 111] |  | < 100 µM | 
CC(C)C[C@H](NC(=O)[C@H](CCC(=O)O)NC(=O)Cc1ccsc1)C(=O)N[C@@H](CS)C(=O)NCCc1ccccc1Cl [Compound 222] | < 100 µM |  | 
CC(C)CC(NC(=O)c1ccccc1-c1ccccc1C(=O)O)C(=O)NC(CC(F)F)C(=O)NCCc1c(F)cc(C(=O)O)cc1F (stereo not drawn) [Compound 718] |  |  | IC50 [1]: < 100 µM
CC(C)COC(=O)NC(CCC(=O)O)C(=O)NC(CC(C)C)C(=O)NC(CS)C(=O)NCCc1cccs1 (stereo not drawn) [Compound 191] |  | < 100 µM | 
CC(C)CC(O)C(=O)N[C@@H](CCC(=O)O)C(=O)N[C@@H](CC(C)C)C(=O)N[C@@H](CS)C(=O)NCCc1ccccc1Cl (stereo partly drawn) [Compound 229] | < 100 µM |  | 
COc1ccc(CCNC(=O)C(CS)NC(=O)C(CC(C)C)NC(=O)C(CCC(=O)O)NC(=O)OCc2ccccc2)cc1 (stereo not drawn) [Compound 143] |  | < 100 µM | 

Structure (SMILES) | IC50 [2] | IC50 [3] | further results
CC(C)COC(=O)N[C@@H](CCC(=O)O)C(=O)N[C@@H](CC(F)F)C(=O)N[C@@H](CS)C(=O)NCCc1ccc(C(=O)O)cc1 [Compound 402] |  |  | IC50 [4]: < 100 µM
CC(C)COC(=O)N[C@@H](CCC(=O)O)C(=O)N[C@@H](CC(C)C)C(=O)N[C@@H](CS)C(=O)NCC1(c2ccccc2)CC1 [Compound 109] |  | < 100 µM | 
CCOC(=O)/C=C/c1cccc(CCNC(=O)[C@H](CS)NC(=O)[C@H](CC(C)C)NC(=O)[C@H](CCC(=O)O)NC(=O)OCC(C)C)c1 [Compound 135] |  | < 100 µM | 
CC(C)C[C@H](NC(=O)[C@H](CCC(=O)O)NC(=O)C1C[C@H]1c1ccccc1)C(=O)N[C@@H](CS)C(=O)NCCc1ccccc1Cl (stereo partly drawn) [Compound 219] | < 100 µM |  | 
CC(C)COC(=O)NC(CCC(=O)O)C(=O)NC(CC(C)C)C(=O)NC(CS)C(=O)NCCc1cccc(Br)c1 (stereo not drawn) [Compound 128] |  | < 100 µM | 
CC(C)C[C@H](NC(=O)[C@H](CCC(=O)O)NC(=O)CC(C)(C)CC(=O)O)C(=O)N[C@@H](CS)C(=O)NCCc1ccccc1Cl [Compound 240] | < 100 µM |  | 
CC(C)C[C@H](NC(=O)[C@H](CCC(=O)O)NC(=O)Nc1ccccc1)C(=O)N[C@@H](CS)C(=O)NCCc1ccccc1Cl [Compound 247] | < 100 µM |  | 
COc1ccccc1CCNC(=O)C(CS)NC(=O)C(CC(C)C)NC(=O)C(CCC(=O)O)NC(=O)OCC(C)C (stereo not drawn) [Compound 119] |  | < 100 µM | 
COc1ccc(CCNC(=O)[C@H](CS)NC(=O)[C@H](CC(C)C)NC(=O)[C@H](CCC(=O)O)NS(=O)(=O)c2ccc3ccccc3c2)cc1 [Compound 255] | < 100 µM |  | 
COC(=O)c1ccccc1CCNC(=O)C(CS)NC(=O)C(CC(C)C)NC(=O)C(CCC(=O)O)NC(=O)OCC(C)C (stereo not drawn) [Compound 122] |  | < 100 µM | 
CC(C)COC(=O)NC(CCC(=O)O)C(=O)NC(CC(C)C)C(=O)NC(CS)C(=O)NCCc1ccccc1Oc1ccccc1 (stereo not drawn) [Compound 123] |  | < 100 µM | 
CC(C)C[C@H](NC(=O)[C@H](CCC(=O)O)NS(=O)(=O)c1cccs1)C(=O)N[C@@H](CS)C(=O)NCCc1ccccc1Cl [Compound 253] | < 100 µM |  | 
CC(C)C[C@H](NC(=O)C1(Cc2ccc(C(=O)O)cc2)Cc2ccccc2N1)C(=O)N[C@@H](CS)C(=O)NCCc1ccc(C(=O)O)cc1 (single isomer, unassigned) [Compound 702] |  |  | IC50 [1]: < 100 µM
CC(C)COC(=O)NC(CCC(=O)O)C(=O)NC(CC(C)C)C(=O)NC(CS)C(=O)NCCc1ccccc1Cl (stereo not drawn) [Compound 113] |  | < 100 µM | 
CC(C)C[C@H](NC(=O)[C@H](CCC(=O)O)NC(=O)c1ccco1)C(=O)N[C@@H](CS)C(=O)NCCc1ccccc1Cl [Compound 201] | < 100 µM |  | 
CC(C)C[C@H](NC(=O)[C@H](CCC(=O)O)NS(=O)(=O)Cc1ccccc1)C(=O)N[C@@H](CS)C(=O)NCCc1ccc(Cl)cc1Cl [Compound 256] | < 100 µM |  | 
CCCCc1ccnc(C(=O)NS(=O)(=O)c2ccc(CCNC(=O)[C@H](CS)NC(=O)[C@H](CC(C)C)NC(=O)[C@H](CCC(=O)O)NC(=O)OCC(C)C)cc2)c1 [Compound 163] |  | < 10 µM | 
CC(C)COC(=O)N[C@@H](CCC(=O)O)C(=O)N[C@H](C(=O)N[C@@H](CS)C(=O)NCCc1ccccc1Cl)C1CCCC1 [Compound 411] |  |  | IC50 [4]: < 100 µM
COC(=O)CCc1ccc(CCNC(=O)C(CS)NC(=O)C(CC(C)C)NC(=O)C(CCC(=O)O)NC(=O)OCC(C)C)cc1 (stereo not drawn) [Compound 155] |  | < 100 µM | 
